Test results reported in patent US8106055B2, “Substituted amide compounds” (Gruenenthal GmbH, priority 2007, dated 2012).
Read-outs that look alike come from different tables or passages of the source.

Assays:
[1] = biological target: T1, bradykinin 1 receptor (B1R) of the rat (Rattus norvegicus, UniProt P97583); test: Functional investigation on the rat bradykinin 1 receptor (B1R), Ca2+ FLIPR assay in CHO K1 rB1R cells; type: cell-based; conditions: test substance 10 μM; for inhibition at 10 µM: CHO-K1, B1R antagonism rat, read-out: B1R Ant. r [10 μM] % Inhibition
T1 construct: expressed in transfected cells; host or cells: CHO K1 cells
T1 sequence (P97583 1-337): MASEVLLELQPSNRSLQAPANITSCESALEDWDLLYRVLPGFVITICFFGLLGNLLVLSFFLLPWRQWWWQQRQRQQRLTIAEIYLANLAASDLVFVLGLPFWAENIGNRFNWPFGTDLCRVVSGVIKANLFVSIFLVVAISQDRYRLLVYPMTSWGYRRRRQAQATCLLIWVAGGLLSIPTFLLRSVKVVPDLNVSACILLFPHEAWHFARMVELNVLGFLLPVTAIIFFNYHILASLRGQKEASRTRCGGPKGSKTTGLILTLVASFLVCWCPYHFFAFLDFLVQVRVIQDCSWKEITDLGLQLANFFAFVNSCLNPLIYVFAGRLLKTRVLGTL
How it was run: (§1)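 Fluo-4 Ca2+ readout, peak fluorescence. Stable CHO K1 transfectants; compound pre-incubated 10-20 min, then EC80 agonist—Lys-Des-Arg9-BK for hB1R, Des-Arg9-BK for rB1R. % inhibition vs maximal inhibition; IC50 from multiple concentrations, duplicate/triplicate, ≥2 independent runs.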

human μ opiate receptor = biological target: T2, human μ opiate receptor (Homo sapiens, UniProt P35372); test: Affinity for the human μ opiate receptor ([3H]-naloxone displacement, CHO-K1 receptor membrane preparation, SPA); type: binding; conditions: 1.5 h, Table 3, to be read in the same way as Table 1; test concentration 1 μM; read-out: μ
T2 construct: purchased PerkinElmer Life Sciences, Zaventem, Belgium RB-HOM; host or cells: CHO-K1 cells (membrane preparation)
T2 sequence (P35372 whole entry): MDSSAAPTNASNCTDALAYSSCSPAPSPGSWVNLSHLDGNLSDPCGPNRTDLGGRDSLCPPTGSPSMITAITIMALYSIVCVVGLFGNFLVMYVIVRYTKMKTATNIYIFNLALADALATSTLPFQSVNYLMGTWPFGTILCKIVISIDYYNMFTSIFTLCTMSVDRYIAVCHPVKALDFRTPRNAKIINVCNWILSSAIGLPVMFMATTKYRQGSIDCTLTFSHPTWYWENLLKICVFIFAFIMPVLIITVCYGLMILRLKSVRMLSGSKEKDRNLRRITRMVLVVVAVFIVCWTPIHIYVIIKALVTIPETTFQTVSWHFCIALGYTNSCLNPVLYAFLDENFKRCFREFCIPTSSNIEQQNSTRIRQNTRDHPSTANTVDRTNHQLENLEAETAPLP
How it was run: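 Test compounds, 1 nmol/l [3H]-naloxone and CHO-K1 membranes bearing the human μ opiate receptor are combined with WGA-SPA beads. After 90 minutes at room temperature, plates are centrifuged and radioactivity counted. Specific-binding inhibition at 1 μmol/l is given in percent.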

[2] = biological target: T3, human bradykinin 1 receptor (B1R) (Homo sapiens, UniProt P46663); test: Functional investigation on the human bradykinin 1 receptor (B1R), Ca2+ FLIPR assay in CHO K1 hB1R cells; type: cell-based; conditions: test substance 10 μM; for inhibition at 10 µM: CHO-K1, B1R antagonism human, read-out: B1R Ant. h [10 μM] % Inhibition
T3 construct: expressed in transfected cells; host or cells: CHO K1 cells
T3 sequence (P46663 1-353): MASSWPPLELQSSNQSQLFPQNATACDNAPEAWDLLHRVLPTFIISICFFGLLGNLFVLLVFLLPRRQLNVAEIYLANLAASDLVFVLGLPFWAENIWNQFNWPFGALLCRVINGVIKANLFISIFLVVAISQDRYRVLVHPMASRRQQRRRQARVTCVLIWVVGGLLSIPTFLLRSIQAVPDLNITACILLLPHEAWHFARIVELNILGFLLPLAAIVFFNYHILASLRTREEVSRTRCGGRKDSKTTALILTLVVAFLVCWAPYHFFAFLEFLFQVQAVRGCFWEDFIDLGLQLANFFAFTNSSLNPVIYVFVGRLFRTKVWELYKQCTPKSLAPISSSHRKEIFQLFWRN
How it was run: as §1

[3] = % inhibition compared with the maximum achievable inhibition

Row | SMILES | inhibition at 10 µM ([1]; Ca2+ FLIPR, CHO K1 rB1R cells) [%] | inhibition at 1 µM (human μ opiate receptor) [%] | inhibition at 10 µM ([2]; Ca2+ FLIPR, CHO K1 hB1R cells) [%] | B1R Ant. r [10 μM] % Inhibition ([1]; B1R antagonism rat, Ca2+ FLIPR, CHO K1 rB1R cells) [%] | B1R Ant. h [10 μM] % Inhibition ([2]; B1R antagonism human, Ca2+ FLIPR, CHO K1 hB1R cells) [%] | inhibition at 10 µM [1, 3] [%] | inhibition at 10 µM [2, 3] [%]
1 | CN1CCN(C(c2ccccc2)C2CCC(NC(=O)COCCN(C)S(=O)(=O)c3ccc(Cl)cc3Cl)CC2)CC1 (stereo not drawn) [Example 704, 2-(2-(2,4-dichloro-N-methylphenylsulfonamido)ethoxy)-N-(4-((4-methylpiperazin-1-yl)(phenyl)methyl)cyclohexyl)acetamide] | 39 | 27 | 75 |  |  |  | 
2 | CN1CCN(C(c2ccccc2)C2CCC(NC(=O)COC3CCN(S(=O)(=O)c4c(Cl)cc(Cl)cc4Cl)C3)CC2)CC1 (stereo not drawn) [Example 686, N-(4-((4-methylpiperazin-1-yl)(phenyl)methyl)cyclohexyl)-2-(1-(2,4,6-trichlorophenylsulfonyl)pyrrolidin-3-yloxy)acetamide] | 29 | 30 | 80 |  |  |  | 
3 | CN(CCOCC(=O)NC1CCC(C(c2ccccc2)N2CCCC2)CC1)S(=O)(=O)c1c(Cl)cc(Cl)cc1Cl (stereo not drawn) [Example 625, N-(4-(phenyl(pyrrolidin-1-yl)methyl)cyclohexyl)-2-(2-(2,4,6-trichloro-N-methylphenylsulfonamido)ethoxy)acetamide] |  | 72 |  | 57 | 100 |  | 
4 | COc1cc(C)c(S(=O)(=O)N(C)CCOCC(=O)NC2CCC(C(CCc3ccccc3)N3CCCCC3)CC2)c(C)c1 (stereo not drawn) [Example 663, 2-(2-(4-methoxy-N,2,6-trimethylphenylsulfonamido)ethoxy)-N-(4-(3-phenyl-1-(piperidin-1-yl)propyl)cyclohexyl)acetamide] | 95 | 26 | 103 |  |  |  | 
5 | O=C(COCC1CCCCN1S(=O)(=O)c1c(Cl)cc(Cl)cc1Cl)NC1CCC(C(c2ccccc2)N2CCOCC2)CC1 (stereo not drawn) [Example 700, N-(4-(morpholino(phenyl)methyl)cyclohexyl)-2-((1-(2,4,6-trichlorophenylsulfonyl)piperidin-2-yl)methoxy)acetamide] | 89 | 27 | 38 |  |  |  | 
6 | COc1cc(C)c(S(=O)(=O)N(C)CCOCC(=O)NCC2CCC(C(CCc3ccccc3)N3CCCC3)CC2)c(C)c1 (stereo not drawn) [Example 720, 2-(2-(4-methoxy-N,2,6-trimethylphenylsulfonamido)ethoxy)-N-((4-(3-phenyl-1-(pyrrolidin-1-yl)propyl)cyclohexyl)methyl)acetamide] | 101 | 26 | 101 |  |  |  | 
7 | CN1CCN(C(c2ccccc2)C2CCC(NC(=O)COC3CCCN(S(=O)(=O)c4c(Cl)cc(Cl)cc4Cl)C3)CC2)CC1 (stereo not drawn) [Example 692, N-(4-((4-methylpiperazin-1-yl)(phenyl)methyl)cyclohexyl)-2-(1-(2,4,6-trichlorophenylsulfonyl)piperidin-3-yloxy)acetamide] | 41 | 65 | 78 |  |  |  | 
8 | COc1cc(C)c(S(=O)(=O)N2CCCC(COCC(=O)NC3CCC(C(CCc4ccccc4)N4CCCCC4)CC3)C2)c(C)c1 (stereo not drawn) [Example 740, 2-((1-(4-methoxy-2,6-dimethylphenylsulfonyl)piperidin-3-yl)methoxy)-N-(4-(3-phenyl-1-(piperidin-1-yl)propyl)cyclohexyl)acetamide] | 70 | 15 | 79 |  |  |  | 
9 | CN1CCN(C(c2ccccc2)C2CCC(NC(=O)COCCN(C)S(=O)(=O)c3c(Cl)cccc3Cl)CC2)CC1 (stereo not drawn) [Example 684, 2-(2-(2,6-dichloro-N-methylphenylsulfonamido)ethoxy)-N-(4-((4-methylpiperazin-1-yl)(phenyl)methyl)cyclohexyl)acetamide] | 61 | 29 | 95 |  |  |  | 
10 | O=C(COCC1CCCN(S(=O)(=O)c2c(Cl)cc(Cl)cc2Cl)C1)NCC1CCC(C(c2ccccc2)N2CCCC2)CC1 (stereo not drawn) [Example 659, N-((4-(phenyl(pyrrolidin-1-yl)methyl)cyclohexyl)methyl)-2-((1-(2,4,6-trichlorophenylsulfonyl)piperidin-3-yl)methoxy)acetamide] | 100 | 79 | 50 |  |  |  | 
11 | COc1cc(C)c(S(=O)(=O)N2CCC(OCC(=O)NC3CCC(C(CCc4ccccc4)N4CCOCC4)CC3)C2)c(C)c1 (stereo not drawn) [Example 668, 2-(1-(4-methoxy-2,6-dimethylphenylsulfonyl)pyrrolidin-3-yloxy)-N-(4-(1-morpholino-3-phenylpropyl)cyclohexyl)acetamide] | 64 | 10 | 88 |  |  |  | 
12 | CN(CCOCC(=O)NCC1CCC(C(CCc2ccccc2)N2CCCC2)CC1)S(=O)(=O)c1c(Cl)cccc1Cl (stereo not drawn) [Example 722, 2-(2-(2,6-dichloro-N-methylphenylsulfonamido)ethoxy)-N-((4-(3-phenyl-1-(pyrrolidin-1-yl)propyl)cyclohexyl)methyl)acetamide] | 89 | 32 | 101 |  |  |  | 
13 | CN(CCOCC(=O)NCC1CCC(C(c2ccccc2)N2CCCC2)CC1)S(=O)(=O)c1c(Cl)cc(C(F)(F)F)cc1Cl (stereo not drawn) [Example 646, 2-(2-(2,6-dichloro-N-methyl-4-(trifluoromethyl)phenylsulfonamido)ethoxy)-N-((4-(phenyl(pyrrolidin-1-yl)methyl)cyclohexyl)methyl)acetamide] | 15 | 49 | 60 |  |  |  | 
14 | COc1cc(C)c(S(=O)(=O)N2CCCC2COCC(=O)NC2CCC(C(c3ccccc3)N3CCOCC3)CC2)c(C)c1 (stereo not drawn) [Example 694, 2-((1-(4-methoxy-2,6-dimethylphenylsulfonyl)pyrrolidin-2-yl)methoxy)-N-(4-(morpholino(phenyl)methyl)cyclohexyl)acetamide] | 104 | 10 | 54 |  |  |  | 
15 | CN1CCN(C(c2ccccc2)C2CCC(NC(=O)COCC3CCCN(S(=O)(=O)c4c(Cl)cc(Cl)cc4Cl)C3)CC2)CC1 (stereo not drawn) [Example 742, N-(4-((4-methylpiperazin-1-yl)(phenyl)methyl)cyclohexyl)-2-((1-(2,4,6-trichlorophenylsulfonyl)piperidin-3-yl)methoxy)acetamide] | 53 | 29 | 36 |  |  |  | 
16 | COc1cc(C)c(S(=O)(=O)N2CCCC2COCC(=O)NCC2CCC(C(c3ccccc3)N3CCCC3)CC2)c(C)c1 (stereo not drawn) [Example 649, 2-((1-(4-methoxy-2,6-dimethylphenylsulfonyl)pyrrolidin-2-yl)methoxy)-N-((4-(phenyl(pyrrolidin-1-yl)methyl)cyclohexyl)methyl)acetamide] | 106 | 67 | 105 |  |  |  | 
17 | CN1CCN(C(Cc2ccccc2)C2CCN(C(=O)COCC3CCc4ccccc4N3S(=O)(=O)c3ccc(Cl)c(Cl)c3)CC2)CC1 (stereo not drawn) [Example 812, 2-((1-(3,4-dichlorophenylsulfonyl)-1,2,3,4-tetrahydroquinolin-2-yl)methoxy)-1-(4-(1-(4-methylpiperazin-1-yl)-2-phenylethyl)piperidin-1-yl)ethanone] |  | 37 |  |  |  | 98 | 105
18 | CN(CCOCC(=O)NCC1CCC(C(CCc2ccccc2)N2CCOCC2)CC1)S(=O)(=O)c1c(Cl)cccc1Cl (stereo not drawn) [Example 721, 2-(2-(2,6-dichloro-N-methylphenylsulfonamido)ethoxy)-N-((4-(1-morpholino-3-phenylpropyl)cyclohexyl)methyl)acetamide] | 57 | 7 | 94 |  |  |  | 
